From patent US20180244653A1, “SELECTIVE ALPHA-7 NICOTINIC RECEPTOR AGONISTS AND METHODS FOR MAKING AND USING THEM” (THE REGENTS OF THE UNIVERSITY OF CALIFORNIA, priority 2015, published 2018)
Entries after “also recorded” stand apart in the source; their conditions may differ. Like-named read-outs stand apart in the source and are kept apart here.

How the values were obtained:
[1] = tested on: physiologically induced amnesia mice; experiment: ORT with 24 h time delay (natural memory loss); type: in vivo; conditions: 24 h delay; i.p.
Description: Both compounds were further evaluated on a physiologic amnesic model by using ORT with 24 h time delay to induce natural memory loss in mice. The appropriate time delay causing amnesia was initially selected by varying delay times (24, 48, and 72 h) between sample and test phase that have identical and different objects, respectively. […] Therefore, 24 h was used as the time delay between sample and test phase.
FIG. 27 illustrates exploration time to familiar (F) and novel (N) objects in test phase of ORT following a time delay. Each mouse was allowed to explore an open field apparatus for 5 min in a habituation phase one day before a sample phase. In the test day, vehicle (SH) and test compounds IND8, QND8 and PNU were injected 1 h before measurement of exploration time. Each mouse was allowed to explore 2 identical objects in the sample phase for 5 min. On the next day (24 h), one of the objects was changed to a new one and the mouse was allowed to explore these objects for 5 min. The exploration time of these objects was recorded. Data are presented as means±SE, n=6-8 mice/group. **p<0.01, ***p<0.001 vs exploration time of familiar object, paired student's t-test.
The DI was calculated and compared with the control group to evaluate IND8, QND8, and PNU-282987 enhancement of cognitive function. Data are shown in FIG. 28, which illustrates discrimination index (TN−TF/TN+TF) of each compound in the test phase of ORT with time delay protocol. There was a significant difference in DI (F6,43=6.097, p<0.001, n=6-8 mice/group). **p<0.01, ***p<0.001 vs vehicle group (SH), one-way ANOVA with Fisher's LSD post hoc comparison.
The apparatus used in this experiment was the same as ORT test. This experiment was divided into 2 parts directed to dose finding and establishing mechanism of action.
For dose finding protocol, the mice were randomly divided into different treatment groups, a control group receiving a vehicle and tested groups receiving PNU-282987 at 3, 10 mg/kg, and IND8, QND8 for 10, 25 μmol/kg, single dose. They were allowed to freely explore the open field apparatus for 5 min for habituation in a day before the experiment (day 1). On the test day (day 2), the test compound was injected 1 h before the sample phase. In this phase, mice were placed in the apparatus to explore two identical objects. On the next day (day 3), one object was changed to a new one and mice were allowed to explore these objects for 5 min in the test phase. For proving cognitive enhancement mediated through α7-nAChRs, the protocol was the same as mentioned above except MLA (3 mg/kg), selective α7-nAChR antagonist, was injected 5 min before test compounds in the sample phase (day 2) to block the cognitive enhancement effect from test compounds. The dose of test compounds is selected from the effective dose from the former experiment. The exploration time of each object was recorded if the nose of mouse came within 3 cm or touched the objects. The discrimination index (DI) was calculated by using (TN−TF)/(TN+TF); TN and TF represented exploration time of new and familiar objects, respectively.

α7-nAChRs = target: T1, α7-nAChRs (Homo sapiens, UniProt P36544); experiment: FRET functional assay (agonist/antagonist) using LGIC-CNiFERs; type: cell-based; conditions: for EC50: in presence of 10 μM PNU-120596, * partial agonist, >10 = did not pass initial screen, read-out: Agonist EC50 ± SD, α7
T1 construct: expressed in transfected cells; host or cells: HEKtsA201 cells co-expressing TN-XXL
Description: (§1) Initially, the agonist properties of tested compounds were assessed directly. […] All α7-nAChR functional assays were performed in the presence of PNU-120596, an α7-nAChR positive allosteric modulator (PAM), to increase signal and delay the sensitization state of α7-nAChRs enabling the measurement of more prolonged FRET signals.^29 Compounds having agonist responses of >0.20 were determined for EC50, and compounds having inhibition fraction of >0.50 were determined for KA.^25 EC50>13.3 μM and KA>10 μM which are a screening concentration for agonist and antagonist, respectively were reported compounds not taken for further in the screening of receptor occupation and responses.
(§2) Agonist and antagonist elicited responses were characterized using the above CNiFER cell expressing Cys-loop ligand-gated ion channel (LGIC) receptors. […] A 96-well black, clear-bottom microplate (Greiner bio-one, Germany) was coated with poly-D-lysine (Sigma-Aldrich, St. Louis, Mo.) 50 μL/well for 30 min and washed out with Phosphate-Buffered Saline (PBS) (Corning, Cellgro, Manassas, Va.) before plating the cells. After plating and incubation at 37° C. for 1 day, the media was replaced with 100 μL of artificial cerebrospinal fluid (aCSF: 121 mM NaCl, 5 mM KCl, 26 mM NaHCO3, 1.2 mM NaH2PO4H2O, 10 mM glucose, 2.4 mM CaCl2, 1.3 mM MgSO4, 5 mM HEPES, pH 7.4) for 4032 and 5HT3A receptors, whereas 10 μM PNU-120596 (Tocris Bioscience, Bristol, UK) in aCSF with 30 min incubation at 37° C. was used for α7-nAChR. The tested compounds were prepared in aCSF for all receptors except α7-nAChR, where 10 μM PNU-120596, a positive allosteric modulator (PAM) was used. The prepared compounds were added in a separate 96-well polypropylene plate (Costar, Corning, N.Y.). Experiments were conducted at 37° C. using 436-nm excitation. Emitted light was collected at 485 nm and 528 nm. Basal fluorescence was recorded for 30 s, followed by addition of 50 μL of ligand (first addition). Measurements were made at 3.84 s intervals for 2 min to measure the agonistic effect. […] Agonist and antagonist properties were sequentially screened at the final concentration of 13.3 and 10 μM, respectively, which differed from the screening concentration from intact cell binding assay (10 μM).

5HT3A receptors [2] = target: T2, 5HT3A receptors (Mus musculus, UniProt P23979); experiment: as above; type: cell-based; conditions: for EC50: read-out: Agonist EC50 ± SD, 5HT3A
T2 construct: expressed in transfected cells; host or cells: HEK293 cells co-expressing TN-XXL
T2 sequence (P23979 24-489): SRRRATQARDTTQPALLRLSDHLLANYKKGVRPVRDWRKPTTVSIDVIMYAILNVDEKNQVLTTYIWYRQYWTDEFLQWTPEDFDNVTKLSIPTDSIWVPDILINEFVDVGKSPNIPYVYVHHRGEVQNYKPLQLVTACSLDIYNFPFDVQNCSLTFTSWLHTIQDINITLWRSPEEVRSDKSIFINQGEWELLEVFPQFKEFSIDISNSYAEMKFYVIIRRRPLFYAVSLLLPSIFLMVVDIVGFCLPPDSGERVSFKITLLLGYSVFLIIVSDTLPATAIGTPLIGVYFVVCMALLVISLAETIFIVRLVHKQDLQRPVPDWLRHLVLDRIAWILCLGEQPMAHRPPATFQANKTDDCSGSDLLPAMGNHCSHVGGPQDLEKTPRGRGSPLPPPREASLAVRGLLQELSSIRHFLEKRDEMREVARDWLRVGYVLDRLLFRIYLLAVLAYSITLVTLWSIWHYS
Description: as §1, §2

α4β2-nAChRs [3] = target: T3, α4β2-nAChRs (Homo sapiens, UniProt P17787+P43681); experiment: as above; type: cell-based; conditions: for Functional properties at α4β2-nAChRs (agonist / antagonist, type): functional screening and characterization
T3 construct: expressed in transfected cells; host or cells: HEKtsA201 cells co-expressing TN-XXL
Description: as §1, §2

5HT3A receptors [4] = target: T2, 5HT3A receptors; experiment: Intact cell competitive radioligand binding assay ([3H]-granisetron, SPA), LGIC-CNiFERs; conditions: 10 μM, more than 50% radioligand displacement
[5] = target: α7/5HT3A chimera receptor (hα7/m5HT3A), used for α7-nAChRs (UniProt P23979+P36544, M226I/T225I); experiment: Intact cell competitive radioligand binding assay ([3H]-(±)-epibatidine, SPA), LGIC-CNiFERs
α4β2-nAChRs [6] = target: T3, α4β2-nAChRs; experiment: as above; conditions: 10 μM, more than 50% radioligand displacement
[7] = functional screening and characterization

In the case of CCN1C[C@]2(COC(=O)c3ccccc3N3C(=O)C[C@H](C)C3=O)CC[C@H](OC)[C@@]34[C@@H]5C[C@H]6[C@H](OC)[C@@H]5[C@](O)(C[C@@H]6OC)[C@@](O)([C@@H](OC)[C@H]23)[C@@H]14 [MLA, methyllycaconitine, reference compound], the “Discrimination index / cognition enhancement, ORT time delay vs control group” value [1] is reported as “does not enhance episodic memory; also recorded: did not have cognitive enhancement effect”.
In the case of c1ccc(-c2ccc(-c3cn(CCN4CCCCC4)nn3)cc2)cc1 [PPRD7, 1-(2-(4-(Biphenyl-4-yl)-1,2,3-triazol-1-yl)ethyl)piperidine], the “Functional properties at α7-nAChRs (agonist / antagonist)” value (α7-nAChRs; [7]) is reported as “did not pass the functional screening”, the EC50 (α7-nAChRs) is reported as greater than 10 µM and the Kd (5HT3A receptors [2]; competitive antagonist (^C), >10 = did not pass initial screen, vs 5-HT, read-out: Antagonist KA ± SD, 5HT3A) is reported as greater than 10 µM. The “Functional properties at 5HT3A receptors (agonist / antagonist, type)” value (5HT3A receptors [2]; [7]) was “did not pass the functional screening”, the EC50 (5HT3A receptors [2]) was greater than 10 µM and the “Functional properties at α4β2-nAChRs (agonist / antagonist, type)” value (α4β2-nAChRs [3]) was “did not pass the functional screening”. The Kd (α4β2-nAChRs [3]; read-out: Antagonist KA ± SD, α4β2) was greater than 10 µM, the “Initial screening for binding to 5HT3A receptors” value (5HT3A receptors [4]) was “cannot bind to all tested LGIC receptors” and the “Initial screening for binding to α7-nAChRs” value ([5]; 10 μM, more than 50% radioligand displacement) was “cannot bind to all tested LGIC receptors”. The “Initial screening for binding to α4β2-nAChRs” value (α4β2-nAChRs [6]) was “cannot bind to all tested LGIC receptors”.
With Cn1ccc2cc(-c3cn(C4CN5CCC4CC5)nn3)ccc21 (stereo not shown) [QND9, 3-(4-(1-Methyl-indol-5-yl)-1,2,3-triazol-1-yl)quinuclidine] the EC50 (α7-nAChRs) was 1 ± 0.04 µM, the EC50 (5HT3A receptors [2]) was 1.38 ± 0.52 µM and the Kd (α4β2-nAChRs [3]; Antagonist KA ± SD, α4β2, competitive antagonist (^C), >10 = did not pass initial screen, vs (±)-epibatidine) was 5.2 ± 1.2 µM. For the same molecule, the “Functional properties at α4β2-nAChRs (agonist / antagonist, type)” value (α4β2-nAChRs [3]) was “mix-competitive antagonist”, the Kd (α4β2-nAChRs [3]; read-out: Antagonist KA ± SD, α4β2, non-competitive) was 6.5 ± 0.2 µM and the “Fold increase of Kd (α7-nAChRs) compared to IND8” value [5] was 15 fold. The Kd ([5]; read-out: Kd ± SD, α7-nAChRs, >10 = did not pass initial screen at 10 μM) was 1.88 µM and the “Initial screening for binding to α4β2-nAChRs” value (α4β2-nAChRs [6]) was “associate well with α4β2-nAChRs”.
